Data published in PubChem BioAssay (NCI).
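48-hour exposure; five concentrations; linearly interpolated endpoints. TGI is the concentration that stops growth completely.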

How the values were obtained:
Test in all cases: DTP human tumour cell line panel, 48 h
[1] = system: U251 CNS
[2] = system: NCI-H522 lung
[3] = system: OVCAR-3 ovarian
[4] = system: SNB-75 CNS
[5] = system: HCT-116 colon
[6] = system: ACHN renal
[7] = system: SNB-19 CNS
[8] = system: NCI-H226 lung
[9] = system: KM12 colon
[10] = system: HOP-62 NSCLC
[11] = system: UO-31 renal
[12] = system: OVCAR-5 ovarian
[13] = system: MDA-N
[14] = system: M14 melanoma
[15] = system: CAKI-1 renal
[16] = system: SN12C renal
[17] = system: RPMI-8226 leukemia
[18] = system: SF-268 CNS
[19] = system: NCI-H23 lung
[20] = system: SK-OV-3 ovarian
[21] = system: NCI-H460 lung
[22] = system: SF-295 CNS
[23] = system: BT-549 breast
[24] = system: COLO 205 colon
[25] = system: A498 renal
[26] = system: UACC-62 melanoma
[27] = system: HCT-15 colon
[28] = system: TK-10 renal
[29] = system: T-47D breast
[30] = system: OVCAR-8 ovarian
[31] = system: IGROV1 ovarian
[32] = system: MCF7 breast
[33] = system: 786-0 renal
[34] = system: SK-MEL-5 melanoma
[35] = system: HT29 colon
[36] = system: EKVX NSCLC
[37] = system: HOP-92 NSCLC
[38] = system: SW-620 colon
[39] = system: HCC-2998 colon
[40] = system: DU-145 prostate
[41] = system: HL-60(TB) leukemia
[42] = system: MALME-3M melanoma
[43] = system: SK-MEL-2 melanoma
[44] = system: MOLT-4 leukemia
[45] = system: PC-3 prostate
[46] = system: LOX IMVI melanoma
[47] = system: CCRF-CEM leukemia
[48] = system: MDA-MB-435
[49] = system: RXF 393 renal
[50] = system: SF-539 CNS
[51] = system: HS 578T breast
[52] = system: OVCAR-4 ovarian
[53] = system: MDA-MB-231 breast
[54] = system: UACC-257 melanoma
[55] = system: K-562 leukemia
[56] = system: A549 NSCLC
[57] = system: NCI/ADR-RES ovarian
[58] = system: SK-MEL-28 melanoma

SMILES: COc1cc(C(=O)N(C)N(C)C)cc(OC)c1OC
- TGI [1]: > 10000 nM
- TGI [2]: > 10000 nM
- TGI [3]: > 10000 nM
- TGI [4]: > 10000 nM
- TGI [5]: > 10000 nM
- TGI [6]: > 10000 nM
- TGI [7]: > 10000 nM
- TGI [8]: > 10000 nM
- TGI [9]: > 10000 nM
- TGI [10]: > 10000 nM
- TGI [11]: > 10000 nM
- TGI [12]: > 10000 nM
- TGI [13]: > 10000 nM
- TGI [14]: > 10000 nM
- TGI [15]: > 10000 nM
- TGI [16]: > 10000 nM
- TGI [17]: > 10000 nM
- TGI [18]: > 10000 nM
- TGI [19]: > 10000 nM
- TGI [20]: > 10000 nM
- TGI [21]: > 10000 nM
- TGI [22]: > 10000 nM
- TGI [23]: > 10000 nM
- TGI [24]: > 10000 nM
- TGI [25]: > 10000 nM
- TGI [26]: > 10000 nM
- TGI [27]: > 10000 nM
- TGI [28]: > 10000 nM
- TGI [29]: > 10000 nM
- TGI [30]: > 10000 nM
- TGI [31]: > 10000 nM
- TGI [32]: > 10000 nM
- TGI [33]: > 10000 nM
- TGI [34]: > 10000 nM
- TGI [35]: > 10000 nM
- TGI [36]: > 10000 nM
- TGI [37]: > 10000 nM
- TGI [38]: > 10000 nM
- TGI [39]: > 10000 nM
- TGI [40]: > 10000 nM
- TGI [41]: > 10000 nM
- TGI [42]: > 10000 nM
- TGI [43]: > 10000 nM
- TGI [44]: > 10000 nM
- TGI [45]: > 10000 nM
- TGI [46]: > 10000 nM
- TGI [47]: > 10000 nM
- TGI [48]: > 10000 nM
- TGI [49]: > 10000 nM
- TGI [50]: > 10000 nM
- TGI [51]: > 10000 nM
- TGI [52]: > 10000 nM
- TGI [53]: > 10000 nM
- TGI [54]: > 10000 nM
- TGI [55]: > 10000 nM
- TGI [56]: > 10000 nM
- TGI [57]: > 10000 nM
- TGI [58]: > 10000 nM

SMILES: Cc1cccc2c(NCCCN(C)C)c3c([N+](=O)[O-])ccc(C)c3nc12
- TGI [1]: 741 nM
- TGI [2]: 120 nM
- TGI [3]: 357 nM
- TGI [4]: 491 nM
- TGI [5]: 821 nM
- TGI [6]: 332 nM
- TGI [7]: 2020 nM
- TGI [8]: 458 nM
- TGI [9]: 3230 nM
- TGI [10]: 265 nM
- TGI [11]: 492 nM
- TGI [12]: 744 nM
- TGI [13]: 498 nM
- TGI [14]: 297 nM
- TGI [15]: 2610 nM
- TGI [16]: 948 nM
- TGI [17]: 3170 nM
- TGI [18]: 1480 nM
- TGI [19]: 160 nM
- TGI [20]: 982 nM
- TGI [21]: 141 nM
- TGI [22]: 451 nM
- TGI [23]: 858 nM
- TGI [24]: 218 nM
- TGI [25]: 26.9 nM
- TGI [26]: 284 nM
- TGI [27]: 592 nM
- TGI [28]: 709 nM
- TGI [29]: 758 nM
- TGI [30]: 1580 nM
- TGI [31]: 666 nM
- TGI [32]: 173 nM
- TGI [33]: 573 nM
- TGI [34]: 251 nM
- TGI [35]: 1390 nM
- TGI [36]: 360 nM
- TGI [37]: 416 nM
- TGI [38]: 6000 nM
- TGI [39]: < 45.4 nM
- TGI [40]: 651 nM
- TGI [41]: 1390 nM
- TGI [42]: 375 nM
- TGI [43]: 285 nM
- TGI [44]: 1150 nM
- TGI [45]: 259 nM
- TGI [46]: 607 nM
- TGI [47]: > 100000 nM
- TGI [48]: 492 nM
- TGI [49]: 190 nM
- TGI [50]: 1120 nM
- TGI [51]: 2960 nM
- TGI [52]: 554 nM
- TGI [53]: 601 nM
- TGI [54]: 400 nM
- TGI [55]: 3940 nM
- TGI [56]: 778 nM
- TGI [57]: 3370 nM
- TGI [58]: 5870 nM
